What all share (test): NCI tumour cell line growth inhibition, 48 h
The test system of assay [1] is NCI-H226 lung.
Assay [2] has as its system NCI-H460 lung.
In assay [3] the test system is NCI/ADR-RES ovarian.
For assay [4], the system named is U251 CNS.
Assay [5] deals with HOP-62 NSCLC.
For assay [6], the system named is SNB-75 CNS.
For assay [7], the system named is RXF 393 renal.
The test system of assay [8] is SK-MEL-2 melanoma.
Assay [9] deals with UACC-62 melanoma.
Assay [10] has as its system SF-539 CNS.
Assay [11] deals with LOX IMVI melanoma.
The subject of assay [12] is HCC-2998 colon.
For assay [13], the system named is SW-620 colon.

Molecules are shown by their SMILES.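 Method: 48-hour compound exposure of cells in 96-well plates, five concentrations, linear interpolation of endpoints. Here, GI50 denotes the concentration required for 50% inhibition of growth. Definition used: TGI = concentration required for complete inhibition of growth.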

For `CCN(CC)CCCOC(=O)/C=C/c1c(C)[nH]c(=O)[nH]c1=O`, the TGI in [1], in assay [2], in assay [3], in assay [4], in [5] and in assay [6] was more than 625 µM throughout. For the same compound, the TGI is more than 99.1 µM in assay [7]; more than 394 µM in assay [8]; more than 625 µM in [9]; more than 625 µM in [10]; more than 625 µM in assay [11]; more than 625 µM in assay [12]. The TGI in assay [13] was more than 625 µM.
As for `CC(=O)[C@@H]1CCC=C2CC[C@]3(C)[C@@H](CC[C@@H]4[C@@]5(C)CCCNC(C)(C)[C@@H]5CC[C@]43C)[C@H]21`, the GI50 is 1.98 µM in assay [3]; 1.76 µM in assay [4]; 1.82 µM in assay [5]; 1.74 µM in assay [7]; 2.01 µM in [8]; 1.73 µM in [9]. Further, the TGI in assay [3] came out at 3.8 µM; in [4] it was 3.27 µM; in [5] it was 3.4 µM; in [7], 3.32 µM; in assay [8], 3.69 µM; in [9], 3.16 µM.
For the compound `Cc1c2c(cc3c1[nH]c1ccccc13)C=NCC2`, the TGI in [1] is 50.2 µM; in [2], 27.7 µM; in assay [3] it was 63.3 µM; in assay [4], 47.3 µM; in assay [5], 56.4 µM; in [6], 39.5 µM. The TGI in [7] is 16.4 µM; in assay [8], 21.1 µM; in assay [9], 21.5 µM; in [10], 11.9 µM; in [11], 36.6 µM; in [12], 46.8 µM. In [13], this compound came in with a TGI of 27.6 µM.
`O=C(CC/C=C(/CS(=O)(=O)c1ccccc1)S(=O)(=O)c1ccccc1)c1ccccc1`: the TGI in assay [1], in [2], in assay [4], in assay [5], in [6] and in assay [7] was more than 100 µM throughout. In addition, the TGI in assay [8], in assay [9], in [10], in assay [11], in assay [12] and in [13] was more than 100 µM throughout.
Take `CC(=O)NCCC1CN(C(=O)/C=C\C#C[Si](C)(C)C)c2ccccc21` (stereo not given): the TGI in assay [1] was 46 µM; in [2], more than 100 µM; in assay [3], 54.6 µM; in assay [7] it was 55.3 µM; in assay [8] it was 37.8 µM; in assay [9] it was 32.4 µM. Further, the TGI is 73.8 µM in assay [10], 44.3 µM in assay [11], 43.2 µM in assay [12] and more than 100 µM in [13].
`CCCCCCCCCCCCCCCCSCC(COC)COP(=O)([O-])OCC[N+](C)(C)C` (stereo not given): the TGI in assay [1] amounted to 9.24 µM; in assay [2] it was 6.2 µM; in assay [3], 30 µM; in [4] it was 4.37 µM; in assay [5] it was 15.6 µM; in assay [6], 14.3 µM. Moreover, the TGI in [7] was determined as 15.5 µM; in assay [8], 29.6 µM; in assay [9] it was 19.6 µM; in [10] it was 29.7 µM; in assay [11], 17.4 µM; in assay [12] it was 3.56 µM. The compound further registered a TGI in assay [13] of 17.7 µM.
Turning to `CC(=O)OCC1OC(n2cc(F)c(=O)[nH]c2=O)C(N)C(OC(C)=O)C1OC(C)=O` (stereo not given), the TGI in [1], in assay [2], in [3], in assay [4], in assay [5] and in assay [6] was more than 100 µM throughout. Also, the TGI in [7], in assay [8], in assay [9], in assay [10], in assay [11] and in assay [12] was more than 100 µM throughout. The compound also yielded a TGI in assay [13] of more than 100 µM.
As to `Nc1nc2c(c(=O)[nH]1)N(C=O)C(CNc1ccc(C(=O)N[C@@H](CCC(=O)O)C(=O)O)cc1)CN2` (stereo not given in full), the TGI in assay [1], in [2], in [3], in assay [4], in assay [5] and in [6] was more than 125 µM in each case. The TGI was more than 125 µM in assay [7]; 49.1 µM in assay [8]; more than 125 µM in [9]; more than 125 µM in [10]; more than 125 µM in [11]; more than 125 µM in assay [12]. The compound further gave a TGI in [13] of more than 125 µM.
As to `O=C1CC(=O)c2c(O)cc(O)c(c2O)-c2c(ccc(O)c2O)C2=CC(=O)c3c(O)cc(O)c(c3O2)-c2c1ccc(O)c2O` (tested in a mixture with another compound), the TGI in assay [1], in assay [2], in [3], in assay [4], in assay [5] and in [6] was more than 50 µM throughout. Also, the TGI in assay [7], in assay [8], in [9], in [10], in assay [11] and in assay [12] was more than 50 µM in each case. In assay [13], the TGI was more than 50 µM.
As for `CCOC(=O)c1sc2nc(SC)nc3c2c1NC(=O)CN3c1cccc(F)c1`, the TGI in assay [1] was 31.7 µM; in [2] it was more than 100 µM; in assay [4], 31.9 µM; in [5], 28.3 µM; in assay [7] it was 32 µM; in assay [8] it was 67.6 µM. In addition, the TGI in assay [9] was more than 100 µM; in assay [10] it was 15.7 µM; in [11], 38.8 µM; in assay [13], more than 100 µM.
With `O=C(NCCCCCCNC(=O)n1cc(F)c(=O)[nH]c1=O)NCCCOCCOCCCNC(=O)C(O)C(O)C(O)C(O)CO` (stereo not given), the TGI in assay [1], in [2], in assay [3], in assay [4], in [5] and in [6] was more than 2.5 µM throughout. For the same compound, the TGI in assay [7], in assay [8], in assay [9], in assay [10], in assay [11] and in [12] was more than 2.5 µM throughout. The same compound gave a TGI in assay [13] of more than 2.5 µM.

The values above are taken from PubChem BioAssay (NCI).
